Consider one compound from US9492471B2, “Methods of treating a disease or disorder associated with Bruton'S Tyrosine Kinase” (Celgene Avilomics Research, Inc., priority 2013, dated 2016).

Test in all cases: HotSpot kinase profiling
What all share (assay type): biochemical

Assay [1] concerns the target T1, PKCepsilon (Homo sapiens, UniProt Q02156).
T1 construct: purchased Reaction Biology Corp
T1 sequence (Q02156 1-737): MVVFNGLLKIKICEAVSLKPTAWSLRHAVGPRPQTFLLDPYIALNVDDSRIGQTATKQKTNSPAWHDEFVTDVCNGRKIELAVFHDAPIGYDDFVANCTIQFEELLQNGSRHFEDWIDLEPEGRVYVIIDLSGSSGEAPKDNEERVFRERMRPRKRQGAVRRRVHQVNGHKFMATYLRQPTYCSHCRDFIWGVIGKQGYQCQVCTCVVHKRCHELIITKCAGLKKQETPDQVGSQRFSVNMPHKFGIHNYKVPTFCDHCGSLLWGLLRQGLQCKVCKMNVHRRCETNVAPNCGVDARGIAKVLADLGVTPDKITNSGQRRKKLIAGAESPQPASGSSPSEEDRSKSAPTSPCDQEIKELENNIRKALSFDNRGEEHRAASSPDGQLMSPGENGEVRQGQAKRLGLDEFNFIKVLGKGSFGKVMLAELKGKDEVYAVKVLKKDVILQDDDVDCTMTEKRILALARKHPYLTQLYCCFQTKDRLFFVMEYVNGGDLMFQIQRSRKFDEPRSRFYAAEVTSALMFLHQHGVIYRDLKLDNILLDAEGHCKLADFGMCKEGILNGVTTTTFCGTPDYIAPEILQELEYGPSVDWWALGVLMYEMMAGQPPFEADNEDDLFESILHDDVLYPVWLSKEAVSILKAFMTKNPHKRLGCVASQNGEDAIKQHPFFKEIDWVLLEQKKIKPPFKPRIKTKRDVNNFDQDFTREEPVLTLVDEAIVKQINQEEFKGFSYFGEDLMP
A digest of the protocol:
(§1)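 P81 filtration radiometric readout; 2 h incubation at room temperature; 0.1% phosphoric acid wash; DMSO negative control; % inhibition, mean of replicate runs.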

Assay [2] addresses T2, CLK1 (Homo sapiens, UniProt P49759).
T2 construct: purchased Reaction Biology Corp
The essentials: as §1

Assay [3] has as its target T3, DYRK3 (Homo sapiens, UniProt O43781).
T3 construct: purchased Reaction Biology Corp
T3 sequence (O43781 1-588): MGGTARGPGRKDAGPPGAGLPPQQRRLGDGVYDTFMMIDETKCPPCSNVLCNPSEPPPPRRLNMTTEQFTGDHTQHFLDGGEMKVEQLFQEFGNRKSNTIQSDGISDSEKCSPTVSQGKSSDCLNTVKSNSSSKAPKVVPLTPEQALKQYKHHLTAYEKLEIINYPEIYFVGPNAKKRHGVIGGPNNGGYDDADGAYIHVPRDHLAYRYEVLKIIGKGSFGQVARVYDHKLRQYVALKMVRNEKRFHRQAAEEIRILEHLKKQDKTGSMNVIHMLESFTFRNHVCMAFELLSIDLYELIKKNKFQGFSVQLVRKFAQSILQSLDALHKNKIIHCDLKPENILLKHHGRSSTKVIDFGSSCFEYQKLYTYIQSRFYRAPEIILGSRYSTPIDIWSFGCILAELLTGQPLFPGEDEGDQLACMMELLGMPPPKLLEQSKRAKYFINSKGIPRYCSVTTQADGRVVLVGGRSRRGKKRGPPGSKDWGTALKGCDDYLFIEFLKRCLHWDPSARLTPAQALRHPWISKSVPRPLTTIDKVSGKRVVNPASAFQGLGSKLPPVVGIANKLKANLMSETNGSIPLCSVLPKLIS
A digest of the protocol:
as §1

Assay [4] addresses T4, DYRK4 (Homo sapiens, UniProt Q9NR20).
T4 construct: purchased Reaction Biology Corp
T4 sequence (Q9NR20 1-520): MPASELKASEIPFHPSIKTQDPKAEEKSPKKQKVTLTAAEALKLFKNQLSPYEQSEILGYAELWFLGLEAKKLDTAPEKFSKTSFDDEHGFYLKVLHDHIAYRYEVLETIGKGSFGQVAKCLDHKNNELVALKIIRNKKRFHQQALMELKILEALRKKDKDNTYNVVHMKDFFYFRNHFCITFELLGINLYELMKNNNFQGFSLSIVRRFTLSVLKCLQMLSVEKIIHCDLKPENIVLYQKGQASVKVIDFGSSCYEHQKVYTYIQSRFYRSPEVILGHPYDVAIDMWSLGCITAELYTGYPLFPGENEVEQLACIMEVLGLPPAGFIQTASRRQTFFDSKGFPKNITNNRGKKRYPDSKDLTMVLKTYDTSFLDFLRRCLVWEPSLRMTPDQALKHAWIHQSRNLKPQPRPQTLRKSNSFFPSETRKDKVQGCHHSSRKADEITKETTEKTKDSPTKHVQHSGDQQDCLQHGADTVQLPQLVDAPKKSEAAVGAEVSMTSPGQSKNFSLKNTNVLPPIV
A digest of the protocol:
as §1

For assay [5], the target named is T5, PIM1 (Homo sapiens, UniProt P11309).
T5 construct: purchased Reaction Biology Corp
A digest of the protocol:
as §1

The mark [6] stands for this setting: read-out: % Enzyme Activity (relative to DMSO controls) Run 1.
The mark [7] stands for this setting: read-out: % Enzyme Activity (relative to DMSO controls) Run 2.

Where two headings read alike, the source gives them in different places.

T2 sequence (P49759 whole entry): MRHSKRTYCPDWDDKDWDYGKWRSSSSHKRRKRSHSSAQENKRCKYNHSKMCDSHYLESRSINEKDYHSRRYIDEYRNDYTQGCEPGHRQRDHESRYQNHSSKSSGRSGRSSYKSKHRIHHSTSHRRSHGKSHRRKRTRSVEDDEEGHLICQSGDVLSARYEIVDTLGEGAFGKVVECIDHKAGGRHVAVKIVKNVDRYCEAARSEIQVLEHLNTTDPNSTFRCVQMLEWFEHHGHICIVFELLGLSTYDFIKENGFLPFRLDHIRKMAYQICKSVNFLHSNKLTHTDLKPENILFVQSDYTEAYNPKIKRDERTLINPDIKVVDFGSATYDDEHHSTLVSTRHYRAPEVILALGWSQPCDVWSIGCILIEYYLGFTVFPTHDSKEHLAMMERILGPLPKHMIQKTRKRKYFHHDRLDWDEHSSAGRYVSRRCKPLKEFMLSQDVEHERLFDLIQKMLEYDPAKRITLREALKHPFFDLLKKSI
T5 sequence (P11309 whole entry): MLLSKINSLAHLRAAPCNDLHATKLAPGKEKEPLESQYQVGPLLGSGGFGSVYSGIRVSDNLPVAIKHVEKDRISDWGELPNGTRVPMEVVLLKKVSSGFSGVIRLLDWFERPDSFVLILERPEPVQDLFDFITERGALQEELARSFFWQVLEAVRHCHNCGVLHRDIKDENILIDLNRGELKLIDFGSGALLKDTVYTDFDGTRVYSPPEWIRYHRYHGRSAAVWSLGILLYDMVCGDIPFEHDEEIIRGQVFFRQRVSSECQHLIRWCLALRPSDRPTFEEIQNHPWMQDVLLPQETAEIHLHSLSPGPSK

What is called inhibition is the change of the read-out against control, counted positive when it falls. Take `C=CC(=O)Nc1cccc(Nc2nc(Nc3ccc(OCCOC)c(F)c3)ncc2F)c1` [Compound 2]: the inhibition at 3 µM in assay [1] was 6.29%; in assay [2] it was 24.1%; in assay [3], 14.1%; in assay [4], -5.35%; in assay [5], -3.82%. In addition, the remaining activity at 3 µM in assay [1] (setting [6]) turned out to be 93.2%; in assay [1] (setting [7]) it was 94.2%; in assay [2] (setting [6]), 74.4%; in assay [2] (setting [7]), 77.4%; in assay [3] (setting [6]), 86%; in assay [3] (setting [7]) it was 85.9%. Further, the remaining activity at 3 µM amounted to 105% in assay [4] (setting [6]), 106% in assay [4] (setting [7]), 104% in assay [5] (setting [6]) and 104% in assay [5] (setting [7]).
